# Numbered stars: 1 amine (or outer) side, 2 acyl side, 3 side chain; on linkers, the order of the positions; unused ones are H or OH. Bridge positions count the residues as written; N and C are the ends. Square brackets hold non-standard residues; d marks the D form. Ends that are not written are not given here. Peptide text beside a SMILES is read from it. TBMB = c1c(C[*:1])cc(C[*:3])cc1C[*:2]
# How the values were obtained:
# [1] = test system: several Gram-positive strains (with one Gram-negative strain as control); experiment: MIC / antibiotic susceptibility, strains not singled out; type: cell-based; conditions: vancomycin-sensitive bacteria
# Description: (§1) The L-peptides identified from five different phage display libraries were catalogued as described previously and selected sequences were synthesized in D-enantiomeric form by SPPS for further investigation in several biological assays.
# (§2) MICs were determined according to a 96-well microdilution protocol outlined by the Clinical and Laboratory Standard Institute (CLSI) guideline with modifications for peptide antibiotics reported by Wiegand et al.^35 Two-fold serial peptide dilutions were performed to go from 2560 μg/ml to 5 μg/ml in0.2% BSA and 0.01% acetic acid buffer in 96-well polypropylene plates (COSTAR, #3879). Dilution of bacterial suspensions (1:200) of different bacterial strains that were grown until 0.5 McFarland standard were prepared to obtain a final inoculum concentration of 8×10^5 CFU/ml in Mueller-Hinton broth.
# E. coli ATCC 25992 = experiment: microbe, parasite or virus in culture
# Description: as §1, §2
# E. faecalis ATCC 29121 = experiment: microbe, parasite or virus in culture
# Description: as §1, §2
# [2] = test system: high level vancomycin resistant E. faecium (vanA) ATCC 51559; experiment: microbe, parasite or virus in culture
# Description: as §1, §2
# [3] = test system: Methicillin-resistant S. aureus (MRSA) ATCC 43300; experiment: microbe, parasite or virus in culture
# Description: as §1, §2
# [4] = test system: low level vancomycin resistant E. faecium (vanB) ATCC 51299; experiment: microbe, parasite or virus in culture
# Description: as §1, §2
# S. aureus ATCC 6538 = experiment: microbe, parasite or virus in culture
# Description: as §1, §2
# B. subtilis ATCC 6633 = experiment: microbe, parasite or virus in culture
# Description: as §1, §2
# [5] = test system: human red blood cells (hRBC); experiment: Hemolytic activity; type: cell-based; conditions: concentrations up to 256 μg/ml
# Description: Fresh red human blood cells (hRBC) were washed and centrifuged at 3000 rpm for 5 min at 4° C. with PBS until a clear solution was obtained. Two-fold serial dilutions of each peptide in PBS from 0.5 μg/ml to 256 μg/ml were incubated with 0.25% (v/v) hRBC suspension at 37° C. for 1 h, and then centrifuged for 5 min at 3500 rpm in 96-well plate. 50 μl of the supernatant from each well was diluted with 50 μl pure water, and the OD at 415 nm was measured using microplate reader. Melittin at the same concentrations (200 μg/ml for complete lysis) was used as a positive control. Percent hemolysis was calculated according to the equation: […]
# where complete hemolysis was defined as the average hemolysis of all wells containing a final concentration of melittin ranging from 50 to 400 μg/ml. Experiments were performed as triplicates at different days.
# [6] = test system: cell wall biosynthesis in S. aureus; experiment: Accumulation of UDP-N-acetylmuramyl-pentapeptide precursor; type: cell-based; conditions: 10-fold MIC, 1 h
# From the text: We next examined the effect of P14 and P15 on cell wall biosynthesis in live bacteria. Blockade of this biosynthetic pathway causes accumulation of the water soluble intracellular intermediate lipid II precursor UDP-MurNAc-L-Ala-D-γ-Glu-L-Lys-D-Ala-D-Ala.^40 This intermediate is detectable after extraction from the cytosol in response to antibiotic administration by chromatographic methods.
# Accumulation of UDP-N-acetylmuramyl-pentapeptide precursor from S. aureus Accumulation of peptidoglycan precursor of S. aureus […] was analyzed in the presence of peptide antibiotics. Bacteria were grown at 37° C. till OD600 of 0.5 was attained. Ten times MICs of peptide antibiotics were added per ml of grown bacterial culture and allowed to stand for 1 h. After cooling the cells on ice, they were harvested by centrifugation at 4° C. for 15 min. Bacterial cells were suspended in distilled water, and then slowly stirred into boiling water for 15 min. The suspension was allowed to cool first at room temperature, then on ice. After centrifugation at 4° C. for 1 h, the supernatant was lyophilized. The lyophilized sample was dissolved in water, and pH was adjusted to 2 by addition of 20% H3PO4. The white precipitate was removed by centrifugation, and the supernatant was immediately subjected to RP-HPLC analysis and MWs were assessed by MALDI-TOF mass spectroscopy.
# S. aureus = experiment: Time-kill kinetic assay; type: cell-based; conditions: 10×MIC, 5×MICs
# Description: The bacteria-killing kinetics of peptides with S. aureus was measured at 5×MICs, and vancomycin was used as a positive control. An overnight culture of bacterial cells was re-suspended in fresh MH broth at density of 10^7 cells/ml, and cultured with peptides at 37° C. Viable colony forming units (CFUs) were counted by performing tenfold serial dilutions of the aliquot sample at intervals of 0, 1, 2, 4, 8, 12, and 24 hours after inoculation, and plated on MHB agar plates. Time-kill curves were plotted as Log10 (cfu ml^−1) versus time functions.
# HeLa cells = experiment: Mammalian cytotoxicity (MTT) assay; conditions: 24 h, b121: concentrations up to 256 μg/ml
# Description: Cervical cancer cells (HeLa) were cultured in Dulbecco's Modified Eagle's medium (DMEM) (Invitrogen #11995-073) supplemented with 10% bovine calf serum at 37° C., 5% CO2, and seeded (5×10^3 cells/well) in 96-well plate flat-bottomed plate for 24 h before the assay. […] After washing the cells with PBS, the cells were subjected to the standard yellow tetrazolium (3-(4,5-dimethylthiazol-2-yl)-2,5-diphenyltetrazolium bromide (MTT) assay protocol at final concentration of 0.5 mg/ml for 4 h in a humidified 5% CO2 atmosphere at 37° C. MTT solution was then aspirated, and the purple formazan crystals were resuspended in DMSO by incubation for 5 min at 37° C. The absorbance at 540 nm was then read using a microplate reader. Viability control (100% viability) was assigned to samples with only HeLa cells and DMEM media, 0% viability was assigned to samples with 1% added Triton-X-100 and no peptide. Experiments were performed as triplicates at different days.
# [7] = Table 5, E. faecalis ATCC 29121
# [8] = Table 5, high level vancomycin resistant E. faecium ATCC 51559
# [9] = Table 6, high level vancomycin resistant E. faecium ATCC51559
# [10] = Table 6, low level vancomycin resistant E. faecium ATCC51299
Compound,activity against vancomycin-sensitive bacterial strains [1],"MIC E. coli (E. coli ATCC 25992; Table 5, E. coli ATCC 25992) [µg/mL]",MIC E. faecalis (E. faecalis ATCC 29121; [7]) [µg/mL],"MIC VRE (vanA) [2, 8] [µg/mL]","MIC B. subtilis (B. subtilis ATCC 6633; Table 5, B. subtilis ATCC 6633) [µg/mL]",lysis / toxicity on red blood cells [5],accumulation of UDP-MurNAc-pentapeptide [6],killing kinetics / bactericidal activity (S. aureus),"MIC E. coli (E. coli ATCC 25992; Table 6, E. Coli ATCC25992) [µg/mL]","MIC E. faecalis (E. faecalis ATCC 29121; Table 6, E. faecalis ATCC29121) [µg/mL]","MIC VRE (vanA) [2, 9] [µg/mL]","MIC MRSA ([3]; Table 6, MRSA ATCC43300) [µg/mL]",activity against vanB / low-level vancomycin-resistant strain [4],"MIC VRE (vanB) [4, 10] [µg/mL]","MIC S. aureus (S. aureus ATCC 6538; Table 6, S. aureus ATCC6538) [µg/mL]","MIC B. subtilis (B. subtilis ATCC 6633; Table 6, B. subtilis ATCC6633) [µg/mL]",further results
"CSLITQCGGVGC ([dC][dS][dL][dI][dT][dQ][dC]GG[dV]G[dC]; not fully specified (bridges); also: bicyclic, ring places and kind not given here) [P15, bicyclic D-peptide (library BC-B)]",similarly high activity as P14,>256,16,>256,8,neither caused lysis of erythrocytes,accumulation of UDP-MurNAc-pentapeptide at levels similar to vancomycin,bactericidal activity similar to vancomycin,–,–,–,–,–,–,–,–,"MIC MRSA ([3]; Table 5, MRSA ATCC 43300): 32 µg/mL; MIC VRE (vanB) ([4]; Table 5, low level vancomycin resistant E. faecium ATCC 51299): 128 µg/mL; MIC S. aureus (S. aureus ATCC 6538; Table 5, S. aureus ATCC 6538): 8 µg/mL"
CGGGICRTHNC [P18],excellent activity,–,–,–,–,neither caused lysis of erythrocytes,–,–,>256,128,>256,32,moderate activity,128,16,16,–
"CQTDVCQRTIC ([dC][dQ][dT][dD][dV][dC][dQ][dR][dT][dI][dC]; not fully specified (bridges); also: bicyclic, ring places and kind not given here) [P14, bicyclic D-peptide (library BC-A)]",high antibacterial activity,>256,32,128,8,neither caused lysis of erythrocytes,accumulation of UDP-MurNAc-pentapeptide at levels similar to vancomycin,bactericidal activity similar to vancomycin,–,–,–,–,high antibacterial activity,–,–,–,activity against vanA / high-level vancomycin-resistant strain [2]: high antibacterial activity; MIC against MRSA [3]: 32 µg/mL; MIC against vanB vancomycin-resistant Enterococci [4]: 32 µg/mL; MIC against S. aureus (S. aureus ATCC 6538): 8 µg/mL
"CC[C@H](C)[C@H](NC(=O)CN)C(=O)NCC(=O)N[C@@H](C)C(=O)N[C@H](C(=O)N[C@@H](CC(C)C)C(=O)N[C@@H](CCCCN)C(=O)N[C@H](C(=O)N[C@@H](CC(C)C)C(=O)N[C@H](C(=O)N[C@H](C(=O)NCC(=O)N[C@@H](CC(C)C)C(=O)N1CCC[C@H]1C(=O)N[C@@H](C)C(=O)N[C@@H](CC(C)C)C(=O)N[C@H](C(=O)N[C@@H](CO)C(=O)N[C@@H](Cc1c[nH]c2ccccc12)C(=O)N[C@H](C(=O)N[C@@H](CCCCN)C(=O)N[C@@H](CCCNC(=N)N)C(=O)N[C@@H](CCCCN)C(=O)N[C@@H](CCCNC(=N)N)C(=O)N[C@@H](CCC(N)=O)C(=O)N[C@@H](CCC(N)=O)C(N)=O)[C@@H](C)CC)[C@@H](C)CC)[C@@H](C)O)[C@@H](C)O)C(C)C)C(C)C [P2, Melittin]",–,–,–,–,–,–,–,–,–,–,–,–,–,–,–,–,cytotoxicity on HeLa cells (HeLa cells): toxic
"CC[C@@H](C)[C@H]1NC(=O)[C@@H](C(C)C)NC(=O)[C@H]2CSCc3cc(cc(c3)CSC[C@H](C(N)=O)NC(=O)[C@@H](CC(=O)O)NC1=O)CSC[C@@H](N)C(=O)N[C@H](CC(C)C)C(=O)N[C@H](CO)C(=O)N[C@H](CCC(N)=O)C(=O)N[C@H](Cc1ccccc1)C(=O)N2 [P17, CLSQFCVIDC] (H-[dC][dL][dS][dQ][dF][dC][dV][dI][dD][dC]-NH2; linker 1-6-10 via TBMB)",–,–,–,–,–,–,–,–,>256,>256,>256,>256,–,>256,128,128,–
"CC(C)[C@H]1NC(=O)CNC(=O)[C@@H](Cc2ccccc2)NC(=O)[C@H]2CSCc3cc(cc(c3)CSC[C@H](C(N)=O)NC(=O)[C@@H](CO)NC(=O)[C@@H](CCC(N)=O)NC1=O)CSC[C@@H](N)C(=O)NCC(=O)N[C@H](C)C(=O)N[C@H](CCC(N)=O)C(=O)NCC(=O)N2 [P20, CGAQGCFGVQSC] (H-[dC]G[dA][dQ]G[dC][dF]G[dV][dQ][dS][dC]-NH2; linker 1-6-12 via TBMB)",–,–,–,–,–,–,–,–,>256,256,>256,256,–,256,32,32,–
